# Test results: PubChem BioAssay AID602298 (The Scripps Research Institute Molecular Screening Center, 2012)
# Calls of active or inactive are those of the source. No rule for the calls is given here.
# Target: Melanocortin receptor 4 (Homo sapiens) (UniProt P32245)
# Assay: PubChem AID 602298
# Conditions: MC4R stable cells, MTII-stimulated cAMP, TR-FRET
# Sequence of Melanocortin receptor 4 (Homo sapiens) (P32245 whole entry, looked up): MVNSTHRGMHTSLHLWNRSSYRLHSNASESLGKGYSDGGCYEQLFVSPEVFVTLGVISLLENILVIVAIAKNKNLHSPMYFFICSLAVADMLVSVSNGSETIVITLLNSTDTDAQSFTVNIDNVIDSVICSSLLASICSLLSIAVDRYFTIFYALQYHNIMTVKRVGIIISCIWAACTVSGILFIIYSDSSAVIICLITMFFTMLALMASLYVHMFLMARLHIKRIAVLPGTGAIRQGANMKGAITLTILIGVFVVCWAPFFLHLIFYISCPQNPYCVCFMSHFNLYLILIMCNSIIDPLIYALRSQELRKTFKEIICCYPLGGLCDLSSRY
structure (smiles),measurement,value
CCOP(=O)(CCP(=O)(OCC)OCC)OCC.C[CH2][Sn]([Cl])([Cl])[CH2]C,IC50,inactive
